Test results: article PMC3989164, “Multi-Kinase Inhibitor C1 Triggers Mitotic Catastrophe of Glioma Stem Cells Mainly through MELK Kinase Inhibition” (PLoS ONE, 2014)
pIC50: −log10 of the molar value.

Biological target: T1, maternal embryonic leucine-zipper kinase (MELK) (Homo sapiens, UniProt Q14680)
T1 construct: recombinant MELK protein
Assay: in vitro kinase assay with recombinant MELK, ten-dose curve
Type: biochemical

T1 sequence (Q14680 whole entry): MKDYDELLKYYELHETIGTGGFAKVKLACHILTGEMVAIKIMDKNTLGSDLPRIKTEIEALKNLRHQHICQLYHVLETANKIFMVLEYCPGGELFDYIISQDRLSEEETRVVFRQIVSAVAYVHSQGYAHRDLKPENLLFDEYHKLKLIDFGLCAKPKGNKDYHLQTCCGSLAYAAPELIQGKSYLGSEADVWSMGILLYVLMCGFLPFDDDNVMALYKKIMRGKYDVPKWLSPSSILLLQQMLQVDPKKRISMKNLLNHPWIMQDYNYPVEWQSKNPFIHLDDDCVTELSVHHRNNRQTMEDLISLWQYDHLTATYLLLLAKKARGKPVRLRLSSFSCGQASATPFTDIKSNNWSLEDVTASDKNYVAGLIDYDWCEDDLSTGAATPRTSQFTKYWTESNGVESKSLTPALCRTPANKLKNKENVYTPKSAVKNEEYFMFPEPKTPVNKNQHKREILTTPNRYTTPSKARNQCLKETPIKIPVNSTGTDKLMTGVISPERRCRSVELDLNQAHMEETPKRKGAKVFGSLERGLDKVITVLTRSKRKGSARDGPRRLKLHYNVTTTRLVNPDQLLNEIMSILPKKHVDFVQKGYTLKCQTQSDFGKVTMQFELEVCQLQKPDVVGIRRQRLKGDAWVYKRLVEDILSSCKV

pIC50: 7.38
SMILES: CCc1c[nH]c(=O)c2c1[nH]c1ccc3cc(OC)ccc3c12 [C1, Compound 1]
